US12655106B2 (Eikonizo Therapeutics, Inc., priority 2021, dated 2026)

Experiments:
Full length Human HDAC8 = target: T1, Full length Human HDAC8 (Homo sapiens, UniProt Q9BY41); assay: Caliper endpoint assay for HDAC enzymatic activity (HDAC8); type: biochemical; settings: in vitro enzymatic, 30 min pre-incubation, 1 μM substrate peptide
T1 construct: Full length Human HDAC8; HIS (N); host or cells: baculovirus expression system
T1 sequence (Q9BY41 1-377): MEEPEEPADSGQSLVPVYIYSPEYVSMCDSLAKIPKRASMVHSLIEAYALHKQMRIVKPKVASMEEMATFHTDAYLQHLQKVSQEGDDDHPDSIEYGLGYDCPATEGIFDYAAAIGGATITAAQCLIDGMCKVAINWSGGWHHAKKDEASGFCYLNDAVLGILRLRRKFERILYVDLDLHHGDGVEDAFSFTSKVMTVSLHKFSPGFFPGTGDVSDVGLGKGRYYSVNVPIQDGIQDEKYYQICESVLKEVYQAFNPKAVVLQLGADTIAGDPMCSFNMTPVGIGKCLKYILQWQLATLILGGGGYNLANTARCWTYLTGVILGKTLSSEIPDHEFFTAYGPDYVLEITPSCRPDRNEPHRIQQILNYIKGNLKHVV

Full length Human HDAC6 = target: T2, Full length Human HDAC6 (Homo sapiens, UniProt Q9UBN7); assay: Caliper endpoint assay for HDAC enzymatic activity (HDAC6); type: biochemical; settings: for IC50: in vitro enzymatic, Caliper endpoint assay, 30 min pre-incubation, 1 μM substrate peptide; for Selectivity (6 v 8): ratio of HDAC8 IC50/HDAC6 IC50
T2 construct: Full length Human HDAC6; FLAG (C); host or cells: baculovirus expression system
T2 sequence (Q9UBN7 1-1215): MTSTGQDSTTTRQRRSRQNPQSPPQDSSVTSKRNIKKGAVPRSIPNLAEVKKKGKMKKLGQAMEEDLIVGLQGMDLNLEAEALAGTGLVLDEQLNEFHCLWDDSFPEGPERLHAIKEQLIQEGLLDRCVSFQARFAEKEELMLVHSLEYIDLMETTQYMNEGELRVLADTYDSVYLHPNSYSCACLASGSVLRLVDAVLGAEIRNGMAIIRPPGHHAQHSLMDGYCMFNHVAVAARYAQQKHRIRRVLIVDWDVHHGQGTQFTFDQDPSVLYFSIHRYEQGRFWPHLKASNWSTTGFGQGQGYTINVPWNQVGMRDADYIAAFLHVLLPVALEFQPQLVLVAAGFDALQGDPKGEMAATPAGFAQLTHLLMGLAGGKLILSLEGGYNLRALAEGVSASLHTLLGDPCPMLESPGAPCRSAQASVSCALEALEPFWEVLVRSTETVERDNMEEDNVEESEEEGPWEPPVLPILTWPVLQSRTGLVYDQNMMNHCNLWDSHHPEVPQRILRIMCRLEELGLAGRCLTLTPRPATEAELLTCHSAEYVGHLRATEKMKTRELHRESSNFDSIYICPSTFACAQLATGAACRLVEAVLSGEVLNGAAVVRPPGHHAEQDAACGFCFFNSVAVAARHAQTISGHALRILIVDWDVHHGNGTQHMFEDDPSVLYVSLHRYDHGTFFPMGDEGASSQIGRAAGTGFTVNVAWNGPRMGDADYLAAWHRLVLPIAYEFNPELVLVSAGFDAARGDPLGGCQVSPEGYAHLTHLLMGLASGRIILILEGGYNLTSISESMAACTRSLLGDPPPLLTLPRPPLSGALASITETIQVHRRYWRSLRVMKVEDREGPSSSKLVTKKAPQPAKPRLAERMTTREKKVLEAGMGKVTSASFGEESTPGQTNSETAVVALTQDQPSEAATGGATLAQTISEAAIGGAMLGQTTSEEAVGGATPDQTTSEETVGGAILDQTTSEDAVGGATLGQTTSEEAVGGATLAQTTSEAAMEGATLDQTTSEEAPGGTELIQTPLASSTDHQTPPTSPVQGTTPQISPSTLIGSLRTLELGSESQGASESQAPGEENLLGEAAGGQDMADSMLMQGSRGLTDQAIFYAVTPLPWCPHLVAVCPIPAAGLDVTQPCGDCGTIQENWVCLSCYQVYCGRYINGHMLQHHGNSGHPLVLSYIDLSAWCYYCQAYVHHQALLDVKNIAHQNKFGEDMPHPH

SMILES | IC50 (Full length Human HDAC8) [µM] | IC50 (Full length Human HDAC6) [µM] | Selectivity (6 v 8) (Full length Human HDAC6)
CN1CC2(CC(N3CCc4cc(C(=O)NO)cc(F)c4C3)C2)C1 [Compound 290, 8-fluoro-N-hydroxy-2-(2-methyl-2-azaspiro[3.3]heptan-6-yl)-1,2,3,4-tetrahydroisoquinoline-6-carboxamide] | 1 to 10 | 0.001 to 0.1 | IV (IV: >100-1000)
CC[C@@H](c1ccccc1)N1CCc2cc(C(=O)NO)cc(F)c2C1 [Compound 31] | 1 to 10 | 0.001 to 0.1 | –
O=C(NO)c1cc(F)c2c(c1)CN1CCC[C@H]1C2 [Compound 123] | 1 to 10 | 0.1 to 1 | III (III: >10-100)
O=C(NO)c1cc(F)c2c(c1)C[C@H]1CCCN1C2 [Compound 120] | 1 to 10 | 0.001 to 0.1 | IV (IV: >100-1000)
O=C(NO)c1cc(F)c2c(c1)CCN(C1CCC13CCNCC3)C2 (centres unmarked) [Compound 357, 2-(7-azaspiro[3.5]nonan-3-yl)-8-fluoro-3,4-dihydro-1H-isoquinoline-6-carbohydroxamic acid] | 1 to 10 | 0.001 to 0.1 | IV (IV: >100-1000)
O=C(NO)c1cc(F)c2c(c1)CCN([C@H]1CCC3(CCCC3)C1)C2 (single isomer, unassigned) [Compound 185] | 10 to 100 | 0.001 to 0.1 | IV (IV: >100-1000)
CN1CCC[C@]2(CC[C@@H]2N2CCc3cc(C(=O)NO)cc(F)c3C2)C1 (single isomer, unassigned) [Compound 365] | 10 to 100 | 0.001 to 0.1 | IV (IV: >100-1000)
O=C(NO)c1cc(F)c2c(c1)CCN(C1CC3(CCOC3)C1)C2 (single isomer, unassigned) [Compound 188, 8-fluoro-N-hydroxy-2-(6-oxaspiro[3.4]octan-2-yl)-1,2,3,4-tetrahydroisoquinoline-6-carboxamide] | 10 to 100 | 0.001 to 0.1 | IV (IV: >100-1000)
O=C(NO)c1cc(F)c2c(c1)CCN(C1CCC3(COC3)C1)C2 (centres unmarked) [Compound 387, 8-fluoro-2-(2-oxaspiro[3.4]octan-6-yl)-3,4-dihydro-1H-isoquinoline-6-carbohydroxamic acid] | 10 to 100 | 0.001 to 0.1 | IV (IV: >100-1000)
O=C(NO)c1cc(F)c2c(c1)CN1CCCC[C@H]1C2 [Compound 146] | 10 to 100 | 0.1 to 1 | III (III: >10-100)

Next, values leading:

IC50 (Full length Human HDAC8) [µM] | IC50 (Full length Human HDAC6) [µM] | Selectivity (6 v 8) (Full length Human HDAC6) | SMILES
10 to 100 | 0.001 to 0.1 | V (V: >1000) | CN1CC[C@]2(CC[C@H](N3CCc4cc(C(=O)NO)cc(F)c4C3)C2)C1 (single isomer, unassigned) [Compound 403]
> 100 | 0.001 to 0.1 | V (V: >1000) | O=C(NO)c1cc(F)c2c(c1)CCN(C1CCC3(CC1)C[S+]([O-])C3)C2 (centres unmarked) [Compound 426, 8-fluoro-2-(2-oxo-2MA-thiaspiro[3.5]nonan-7-yl)-3,4-dihydro-1H-isoquinoline-6-carbohydroxamic acid]
1 to 10 | 0.001 to 0.1 | IV (IV: >100-1000) | CC[C@H]1Cc2c(F)cc(C(=O)NO)cc2CN1CC12CC3CC(CC(C3)O1)C2 (single isomer, unassigned) [Compound 510]
10 to 100 | 0.1 to 1 | III (III: >10-100) | CN1CC2(C[C@H](N3CCc4cc(C(=O)NO)cc(F)c4C3)CCO2)C1 (single isomer, unassigned) [Compound 452]
> 100 | 0.001 to 0.1 | V (V: >1000) | CN1CC2(CCC(N3CCc4cc(C(=O)NO)cc(F)c4C3)C2)C1 (centres unmarked) [Compound 389, 8-fluoro-2-(2-methyl-2-azaspiro[3.4]octan-6-yl)-3,4-dihydro-1H-isoquinoline-6-carbohydroxamic acid]
10 to 100 | 0.001 to 0.1 | IV (IV: >100-1000) | CN1CC[C@H](N2CCc3cc(C(=O)NO)cc(F)c3C2)CC12CCC2 (single isomer, unassigned) [Compound 437]
